The source of these data is patent US7612201B2, “Pyrazole compounds” (Vernalis (Cambridge) Limited, priority 2002, dated 2009).

pIC50: −log10 of the molar value.

The target of this experiment is T1, yeast HSP90 (Saccharomyces cerevisiae, UniProt P02829).
T1 construct: made in house; host or cells: E. coli
In words: Malachite green ATPase assay. The note with it: activity range. Format: biochemical. The text has this: The intrinsic ATPase activity of HSP90 may be measured using yeast HSP90 as a model system. The assay, based on the use of malachite green for the measurement of inorganic phosphate, was used to test the HSP90 inhibitory activity of the compounds of the Examples herein.
Malachite Green ATPase Assay
Chemicals are of the highest purity commercially available and all aqueous solutions are made up in AR water. Because of the need to minimise contamination with inorganic phosphate, precautions should be taken with solutions and apparatus used in the assays. Glassware and pH meters are rinsed with double distilled or deionised water before use and, wherever possible, plastic ware should be used. Gloves are worn for all procedures. • (1) Greiner 384-well (Greiner 781101) or Costar 384-well flat-bottomed polystyrene multiwell plates (VWR). • (2) Assay buffer of (a) 100 mM Tris-HCl, pH 7.4, (b) 150 mM KCl, (c) 6 mM MgCl2. Stored at room temperature. • (3) 0.0812% (w/v) malachite green (M 9636, Sigma Aldrich Ltd., Poole, UK). Stored at room temperature. • (4) 2.32% (w/v) polyvinyl alcohol USP (P 1097, Sigma Aldrich Ltd, Poole, UK) in boiling water (see Comment 1), allowed to cool, and stored at room temperature. • (5) 5.72% (w/v) ammonium molybdate in 6 M hydrochloric acid. Stored at room temperature. • (6) 34% (w/v) sodium citrate. Stored at room temperature. • (7) 100 mM ATP, disodium salt, special quality (47699, Sigma Aldrich). Stored at −20° C. • (8) E. coli expressed yeast HSP90 protein, purified >95% (see, e.g., Panaretou et al., 1998) and stored in 50 uL aliquots at −80° C.
Method • 1. Dilute test compounds to 500 μM in AR water (DMSO concentration will be 2.5%). Transfer 2.5 μl of these compounds directly from the daughter plate to the assay plate, giving a final assay concentration of 100 μM. To obtain 12 point IC50 values, perform serial dilutions 1:2 to produce a range of assay concentrations from 100 μM to 97.6 nM (2.5% DMSO), and transfer 2.5 μl of each concentration into the assay plate. Column 1 in the assay plate contains no compound, as a negative control. An additional row with no compound is also used as a background. • 2. Prepare ATP by diluting 100 mM stock to 925 μM with assay buffer, and aliquot 5 μl of diluted ATP to each well including controls (final assay concentration 370 μM). • 3. Add 5 μl of buffer to background row. • 4. Dilute enzyme preparation to 1.05 μM with assay buffer, and aliquot 5 μl into each compound well and to the negative control column. • 5. Collect the reagents to the bottom of the well, cover plate with plate seal and incubate overnight at 37 degC. • 6. First thing in the morning prepare the Malachite Green Reagent. Add 2 parts of Malachite Green Solution, 1 part of Polyvinyl Alcohol Solution, 1 part of Ammonium Molybdate Solution, and 2 parts of AR water. • 7. Invert to mix, and leave for approximately 1 hour until the colour turns from brown to golden yellow. • 8. Add 40 μl of Malachite Green Reagent to each well, allow 5 mins for colour to develop. • 9. Add 5 μl of Sodium Citrate Reagent to each well (see comment 2) • 10. Re-cover with plate seal and shake on plate shaker for at least 15 mins. • 11. Measure Absorbance at 620 nm using a suitable plate reader (e.g. Victor, Perkin Elmer Life Sciences, Milton Keynes, UK).
Comments • (1) The polyvinyl alcohol dissolves in boiling water with difficulty and stirring for 2-3 h is required. • (2) The time interval between addition of the malachite green reagent and the sodium citrate should be kept as short as possible in order to reduce the non-enzymatic hydrolysis of ATP. Once the sodium citrate is added, the colour is stable for up to 4 h at room temperature. • (3) Compounds can be added to the assay plates using a Biomek FX Robot (Beckman Coulter).

T1 sequence (P02829 whole entry): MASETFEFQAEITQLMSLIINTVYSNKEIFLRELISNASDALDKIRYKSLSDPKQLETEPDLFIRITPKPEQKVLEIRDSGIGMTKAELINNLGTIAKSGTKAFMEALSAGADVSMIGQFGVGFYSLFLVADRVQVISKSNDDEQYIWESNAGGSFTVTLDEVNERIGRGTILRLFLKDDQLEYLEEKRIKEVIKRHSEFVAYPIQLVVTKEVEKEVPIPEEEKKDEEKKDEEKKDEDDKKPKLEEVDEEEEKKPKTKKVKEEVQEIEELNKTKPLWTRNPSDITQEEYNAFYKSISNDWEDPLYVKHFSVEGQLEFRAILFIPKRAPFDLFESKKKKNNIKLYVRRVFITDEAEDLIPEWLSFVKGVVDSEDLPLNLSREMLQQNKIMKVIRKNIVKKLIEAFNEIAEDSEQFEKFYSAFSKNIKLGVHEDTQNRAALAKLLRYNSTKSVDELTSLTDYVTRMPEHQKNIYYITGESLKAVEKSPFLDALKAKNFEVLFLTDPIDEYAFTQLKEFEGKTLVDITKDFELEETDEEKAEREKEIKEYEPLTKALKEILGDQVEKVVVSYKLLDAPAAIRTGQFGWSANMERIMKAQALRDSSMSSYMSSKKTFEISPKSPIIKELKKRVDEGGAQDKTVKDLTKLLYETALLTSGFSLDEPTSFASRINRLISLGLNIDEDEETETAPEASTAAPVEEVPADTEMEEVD

Regarding `Oc1cc(O)c(-c2nn(Cc3ccccc3)cc2N2CCNCC2)cc1Br` [Example 63], the pIC50 (in general, the negative decadic logarithm of the IC50, by convention in mol/L) was below 4.30. For `COC(=O)c1ccc(CN2CCN(c3c[nH]nc3-c3cc(Cl)c(O)cc3O)CC2)cc1` [Example 21] the value was above 4.30; for `Oc1cc(O)c(-c2n[nH]cc2N2CCNCC2)cc1CCc1cccc(F)c1` [Example 69], above 4.30.

`Cc1ccc(C)c(CCc2cc(-c3n[nH]cc3N3CCNCC3)c(O)cc2O)c1` [Example 74] gave a pIC50 above 4.30.

`N#Cc1ccc(CN2CCN(c3c[nH]nc3-c3cc(Cl)c(O)cc3O)CC2)cc1` [Example 22] showed a pIC50 above 4.30. In the case of `COC(=O)c1ccc(CN2CCN(c3c[nH]nc3-c3cc(Cl)c(O)cc3O)CC2)o1` [Example 15] it was above 4.30; in that of `Oc1cc(O)c(-c2n[nH]cc2N2CCN(Cc3ccc(Cl)cc3)CC2)cc1Cl` [Example 18], above 4.30; in that of `O=[N+]([O-])c1ccc(CNC2CCN(c3c[nH]nc3-c3cc(Br)c(O)cc3O)CC2)cc1` [Example 84], above 4.30.

For `COC(=O)c1ccc(C(=O)N2CCN(c3c[nH]nc3-c3cc(Cl)c(O)cc3O)CC2)cc1` [Example 32], the pIC50 was below 4.30.

`NC(=O)c1ccc(CN2CCN(c3c[nH]nc3-c3cc(Cl)c(O)cc3O)CC2)cc1` [Example 36] gave a pIC50 above 4.30. Turning to `CC(c1ccccc1)N1CCN(c2c[nH]nc2-c2cc(Cl)c(O)cc2O)CC1` (centres unmarked) [Example 43], the pIC50 was above 4.30.

`Oc1cc(O)c(-c2n[nH]cc2N2CCC(NCc3ccc4c(c3)OCO4)CC2)cc1Br` [Example 83] showed a negative-log IC50 (pIC50) above 4.30. `COc1ccc(CNC2CCN(c3c[nH]nc3-c3cc(Br)c(O)cc3O)CC2)cc1` [Example 81] gave a pIC50 above 4.30. For `COC(=O)c1cccc(CN2CCN(c3c[nH]nc3-c3cc(Cl)c(O)cc3O)CC2)c1` [Example 16] the value was above 4.30; for `Oc1cc(O)c(-c2n[nH]cc2N2CCOCC2)cc1Cl` [Example 3], below 4.30. Molecule `O=C(O)c1ccc(CN2CCN(c3c[nH]nc3-c3cc(Cl)c(O)cc3O)CC2)o1` [Example 28] had a negative-log IC50 (pIC50) above 4.30. `Oc1cc(O)c(-c2n[nH]cc2N2CCNCC2)cc1Br` [Example 55] showed a pIC50 below 4.30.

For the molecule `CCNC(=O)c1[nH]nc(-c2cc(Cl)c(O)cc2O)c1N1CCNCC1` [Example 51, 5-(5-Chloro-2,4-dihydroxy-phenyl)-4-piperazin-1-yl-2H-pyrazole-3-carboxylic acid ethylamide], the pIC50 is above 4.30. For `COCCN1CCN(c2c[nH]nc2-c2cc(Cl)c(O)cc2O)CC1` [Example 14] the value was above 4.30. Regarding `CC(C)(C)OC(=O)N1CCN(c2c[nH]nc2-c2cc(Cl)c(O)cc2O)CC1` [Example 1, 4-[3-(5-Chloro-2,4-dihydroxy-phenyl)-1H-pyrazol-4-yl]-piperazine-1-carboxylic acid tert-butyl ester], the pIC50 was below 4.30.

As for `Oc1cc(O)c(-c2n[nH]cc2N2CCNCC2)cc1CCc1ccc2c(c1)OCO2` [Example 65], the pIC50 is above 4.30.

`O=C(CN1CCN(c2c[nH]nc2-c2cc(Cl)c(O)cc2O)CC1)N1CCOCC1` [Example 40] showed a pIC50 above 4.30. For the molecule `Cn1cc(N2CCNCC2)c(-c2cc(Br)c(O)cc2O)n1` [Example 57], the pIC50 is below 4.30.

The molecule `Oc1cc(O)c(-c2n[nH]cc2N2CCNCC2)cc1CCc1cccc2c1OCO2` [Example 66] had a pIC50 above 4.30. Consider `CCn1cc(N2CCNCC2)c(-c2cc(Br)c(O)cc2O)n1` [Example 59], for which the pIC50 is below 4.30. Turning to `NC(=O)CN1CCN(c2c[nH]nc2-c2cc(Cl)c(O)cc2O)CC1` [Example 20], the pIC50 was above 4.30. In the case of `CCNC1CCN(c2c[nH]nc2-c2cc(Br)c(O)cc2O)CC1` [Example 97] it was above 4.30; in that of `COc1ccc(CN2CCN(c3c[nH]nc3-c3cc(Cl)c(O)cc3O)CC2)cc1` [Example 26], above 4.30. In the case of `N#Cc1ccccc1CN1CCN(c2c[nH]nc2-c2cc(Cl)c(O)cc2O)CC1` [Example 23] it was above 4.30; in that of `Oc1cc(F)ccc1-c1n[nH]cc1N1CCNCC1` [Example 52, 3-(4-Fluoro-2-hydroxyphenyl)-4-(piperazin-1-yl)-1H-pyrazole], below 4.30; in that of `Oc1cc(O)c(-c2n[nH]cc2N2CCN(Cc3ccccn3)CC2)cc1Cl` [Example 31], above 4.30.

`CCOC(=O)Cn1cc(N2CCNCC2)c(-c2cc(Br)c(O)cc2O)n1` [Example 64] showed a pIC50 below 4.30. `Oc1cc(O)c(-c2n[nH]cc2N2CCN(Cc3ccc(-n4cccn4)cc3)CC2)cc1Cl` [Example 39] showed a pIC50 above 4.30. `NC(=O)c1cccc(CN2CCN(c3c[nH]nc3-c3cc(Cl)c(O)cc3O)CC2)c1` [Example 25] showed a pIC50 above 4.30. For `Oc1cc(O)c(-c2n[nH]cc2N2CCNCC2)cc1CCc1ccccc1F` [Example 68] the value was above 4.30; for `Oc1cc(O)c(-c2n[nH]cc2N2CCN(Cc3ccco3)CC2)cc1Cl` [Example 5, 4-Chloro-6-[4-(4-furan-2-ylmethyl-piperazin-1-yl)-1H-pyrazol-3-yl]-benzene-1,3-diol], below 4.30. In the case of `Oc1cc(O)c(-c2n[nH]cc2N2CCC(NCc3ccc(F)cc3)CC2)cc1Br` [Example 80] it was above 4.30. For `Cc1ccc(CCc2cc(-c3n[nH]cc3N3CCNCC3)c(O)cc2O)c(C)c1` [Example 73] the value was above 4.30; for `Cc1cc(NC(=O)c2ccc(CN3CCN(c4c[nH]nc4-c4cc(Cl)c(O)cc4O)CC3)cc2)no1` [Example 37], above 4.30; for `Cn1c(CN2CCN(c3c[nH]nc3-c3cc(Cl)c(O)cc3O)CC2)nc2ccccc21` [Example 33], below 4.30. The molecule `CCN1CCN(c2c[nH]nc2-c2cc(Cl)c(O)cc2O)CC1` [Example 6] had a pIC50 above 4.30.

For the molecule `Oc1cc(O)c(-c2n[nH]cc2N2CCC(NCc3ccc(Br)cc3)CC2)cc1Br` [Example 85], the pIC50 is above 4.30. In the case of `Oc1cc(O)c(-c2n[nH]cc2N2CCN(Cc3cccnc3)CC2)cc1Cl` [Example 7] it was above 4.30; in that of `N#CCCCN1CCN(c2c[nH]nc2-c2cc(Cl)c(O)cc2O)CC1` [Example 13], above 4.30. In the case of `Cc1ccccc1CCc1cc(-c2n[nH]cc2N2CCNCC2)c(O)cc1O` [Example 75] it was above 4.30. As to `CC(C)(C)OC(=O)CN1CCN(c2c[nH]nc2-c2cc(Cl)c(O)cc2O)CC1` [Example 41], the pIC50 was below 4.30.

Regarding `NS(=O)(=O)c1ccc(CNC2CCN(c3c[nH]nc3-c3cc(Br)c(O)cc3O)CC2)cc1` [Example 86], the pIC50 was above 4.30.

The molecule `Oc1cc(O)c(-c2n[nH]cc2N2CCNCC2)cc1CCc1ccc(F)cc1` [Example 70] gave a pIC50 above 4.30. For `CC(C)n1ncc(N2CCNCC2)c1-c1cc(Br)c(O)cc1O` [Example 60] the value was below 4.30; for `Cc1cccc(CCc2cc(-c3n[nH]cc3N3CCNCC3)c(O)cc2O)c1` [Example 71], above 4.30. For `Oc1cc(O)c(-c2n[nH]cc2N2CCC(NCc3ccccc3)CC2)cc1Br` [Example 79] the value was above 4.30. For `OCCCN1CCN(c2c[nH]nc2-c2cc(Cl)c(O)cc2O)CC1` [Example 30] the value was above 4.30; for `CN1CCN(c2c[nH]nc2-c2cc(Cl)c(O)cc2O)CC1` [Example 4], above 4.30.
